Experimental data reported in patent US6515025B2, “Use of ethynyl alanine amino diol compounds to inhibit enzymatic conversion of angiotensinogen to angiotensin I” (Pharmacia Corporation, priority 1991, dated 2003).
Several values for one entry are separate records, joined by “and”; a condition that tells them apart may be missing. Equal entries are not always repeated.

Tests used:
[1] = target: T1, human renin (Homo sapiens, UniProt P00797); assay: Human renin inhibition in vitro; assay type: biochemical
T1 construct: purchased National Institute for Biological Standards, London
T1 sequence (P00797 67-406): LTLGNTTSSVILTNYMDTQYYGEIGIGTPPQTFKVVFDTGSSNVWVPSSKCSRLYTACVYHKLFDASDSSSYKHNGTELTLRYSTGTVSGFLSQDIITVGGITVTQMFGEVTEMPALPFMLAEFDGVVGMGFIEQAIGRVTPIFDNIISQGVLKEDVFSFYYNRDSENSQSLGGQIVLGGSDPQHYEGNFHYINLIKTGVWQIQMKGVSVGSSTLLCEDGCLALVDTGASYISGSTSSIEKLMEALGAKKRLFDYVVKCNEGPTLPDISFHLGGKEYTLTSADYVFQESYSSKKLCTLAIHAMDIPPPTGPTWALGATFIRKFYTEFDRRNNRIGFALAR
Procedure: Compounds of Formula I were evaluated as inhibitors of human renin in an in vitro assay, as follows: This human renin inhibition test has been previously described in detail [Papaioannou et al., Clinical and Experimental Hypertension, A7(9), 1243-1257 (1985)]. Human renin was obtained from the National Institute for Biological Standards, London. An incubation mixture was prepared containing the following components: in a total volume of 0.25 mL: 100 mM Tris-acetate buffer at pH 7.4, 25×10^−6 Goldblatt units of renin, 0.05 mL of plasma from human volunteers taking oral contraceptives, 6.0 mM Na-EDTA, 2.4 mM phenylmethyl sulfonyl fluoride, 1.5 mM 8-hydroxyquinoline, 0.4 mg/mL bovine serum albumin (BSA), and 0.024 mg/mL neomycin sulfate. This mixture was incubated for two hours at 37° C. in the presence or absence of renin inhibitors. The produced angiotensin I was determined by radioimmunoassay (New England Nuclear kit). Test compounds to be assayed were dissolved in DMSO and diluted with 100 mM Tris-acetate buffer at pH 7.4 containing 0.5% BSA to the appropriate concentration. The final concentration of organic solvent in the reaction mixture was less than 1%. Control incubations at 37° C. were used to correct for effects of organic solvent on renin activity.

[2] = Oral bioavailability studies in marmosets (plasma concentration by bioassay); assay type: in vivo; conditions: marmoset; for Plasma Concentrations: individual animals
Procedure: The bioavailability in marmosets and dogs was determined by sampling the blood via the femoral vein at various time points after administering the renin inhibitor compounds of the invention in polyethylene glycol 400 at an intragastric dose of 10 mg/kg or at an intravenous dose of 1 mg/kg. Compound concentration in plasma was determined using the bioassay technique described below. The percent bioavailability was calculated by dividing the area under the concentration-vs.-time curve obtained from the intragastric experiment by the area under the concentration-vs.-time curve obtained from the intravenous experiment (adjusting for different doses), and multiplying the result by 100%. The bioavailibility of Example 1 compound is 27% in marmosets and 33% in dogs.
Renin inhibitor plasma concentrations were determined by a bioassay. The plasma samples were extracted with acetonitrile and the extract was evaporated to dryness under nitrogen. Residue was dissolved in 4% bovine serum albumin containing 0.9% NaCl and 5% EDTA. The dissolved residue (0.1 ml) was incubated with a reaction mixture containing human plasma (0.12 ml), 5% phenylmethysulfonylfluoride (1.2 ul), 10% neomycin (2.4 ul), 0.5 M TES buffer (pH 7.4, 24 ul), and 0.6 mU/ml recombinant human renin (1000 U/mg, 50 ul) at 37° C. for 90 minutes. The renin activity was determined by a standard angiotensin I radioimmunoassay (New England Nuclear Corp.). The amount of test compound in the plasma was determined by comparing the extent of inhibition of renin activity with that produced by a known amount of test compound added to plasma and analyzed above.

- IC50 [1]: 1 nM
- Plasma Concentrations ([2]; IG at 10 mg/kg, Test Run A, 30 min, 10 mg/kg): 7258 ng/mL and 9322 ng/mL
- Plasma Concentrations ([2]; IG at 10 mg/kg, Test Run A, 1 hr, 10 mg/kg): 1989 ng/mL and 1751 ng/mL
- Plasma Concentrations ([2]; IG at 10 mg/kg, Test Run A, 2 hr, 10 mg/kg): 1525 ng/mL and 1811 ng/mL
- Plasma Concentrations ([2]; IG at 10 mg/kg, Test Run A, 3 hr, 10 mg/kg): 5289 ng/mL and 6935 ng/mL
- Plasma Concentrations ([2]; IG at 10 mg/kg, Test Run A, 4 hr, 10 mg/kg): 742 ng/mL and 1766 ng/mL and 1217 ng/mL
- Plasma Concentrations ([2]; IG at 10 mg/kg, Test Run A, 5 hr, 10 mg/kg): 369 ng/mL and 1397 ng/mL and 945 ng/mL
- Plasma Concentrations ([2]; IG at 10 mg/kg, Test Run A, 6 hr, 10 mg/kg): 3177 ng/mL and 4412 ng/mL
- Plasma Concentrations ([2]; IG at 10 mg/kg, Test Run A, 8 hr, 10 mg/kg): 3036 ng/mL and 3800 ng/mL
- Plasma Concentrations ([2]; IG at 10 mg/kg, Test Run B, 30 min, 10 mg/kg): 1016 ng/mL and 1126 ng/mL
- Plasma Concentrations ([2]; IG at 10 mg/kg, Test Run B, 1 hr, 10 mg/kg): 416 ng/mL and 5266 ng/mL and 12300 ng/mL
- Plasma Concentrations ([2]; IG at 10 mg/kg, Test Run B, 2 hr, 10 mg/kg): 519 ng/mL and 4847 ng/mL and 13485 ng/mL
- Plasma Concentrations ([2]; IG at 10 mg/kg, Test Run B, 3 hr, 10 mg/kg): 2751 ng/mL and 3640 ng/mL and 1400 ng/mL
- Plasma Concentrations ([2]; IG at 10 mg/kg, Test Run B, 4 hr, 10 mg/kg): 459 ng/mL and 4502 ng/mL and 11470 ng/mL
- Plasma Concentrations ([2]; IG at 10 mg/kg, Test Run B, 5 hr, 10 mg/kg): 545 ng/mL and 3718 ng/mL and 7783 ng/mL
- Plasma Concentrations ([2]; IG at 10 mg/kg, Test Run B, 6 hr, 10 mg/kg): 2721 ng/mL and 1950 ng/mL
- Plasma Concentrations ([2]; IG at 10 mg/kg, Test Run B, 8 hr, 10 mg/kg): 1566 ng/mL and 1868 ng/mL
- Plasma Concentrations ([2]; IV at 1 mg/kg, Test Run C, 2 min, 1 mg/kg): 21579 ng/mL and 16641 ng/mL
- Plasma Concentrations ([2]; IV at 1 mg/kg, Test Run C, 30 min, 1 mg/kg): 10359 ng/mL and 7921 ng/mL
- Plasma Concentrations ([2]; IV at 1 mg/kg, Test Run C, 1 hr, 1 mg/kg): 2665 ng/mL and 2793 ng/mL
- Plasma Concentrations ([2]; IV at 1 mg/kg, Test Run C, 2 hr, 1 mg/kg): 795 ng/mL and 2362 ng/mL and 1667 ng/mL
- Plasma Concentrations ([2]; IV at 1 mg/kg, Test Run C, 3 hr, 1 mg/kg): 404 ng/mL and 562 ng/mL
- Plasma Concentrations ([2]; IV at 1 mg/kg, Test Run C, 4 hr, 1 mg/kg): 608 ng/mL and 1223 ng/mL and 1068 ng/mL
- Plasma Concentrations ([2]; IV at 1 mg/kg, Test Run C, 6 hr, 1 mg/kg): 208 ng/mL and 245 ng/mL
- Plasma Concentrations ([2]; IV at 1 mg/kg, Test Run D, 2 min, 1 mg/kg): 7875 ng/mL and 5900 ng/mL
- Plasma Concentrations ([2]; IV at 1 mg/kg, Test Run D, 15 min, 1 mg/kg): 7239 ng/mL and 2016 ng/mL and 897 ng/mL
- Plasma Concentrations ([2]; IV at 1 mg/kg, Test Run D, 30 min, 1 mg/kg): 2356 ng/mL and 1189 ng/mL
- Plasma Concentrations ([2]; IV at 1 mg/kg, Test Run D, 1 hr, 1 mg/kg): 1250 ng/mL and 1614 ng/mL and 3149 ng/mL
- Plasma Concentrations ([2]; IV at 1 mg/kg, Test Run D, 2 hr, 1 mg/kg): 1004 ng/mL and 1055 ng/mL
- Plasma Concentrations ([2]; IV at 1 mg/kg, Test Run D, 3 hr, 1 mg/kg): 451 ng/mL and 557 ng/mL and 1009 ng/mL
- Plasma Concentrations ([2]; IV at 1 mg/kg, Test Run D, 4 hr, 1 mg/kg): 153 ng/mL and 587 ng/mL and 506 ng/mL
- Plasma Concentrations ([2]; IV at 1 mg/kg, Test Run D, 6 hr, 1 mg/kg): 84 ng/mL and 158 ng/mL
- concentration at 2 min ([2]; plasma, iv, 1 mg/kg, IV at 1 mg/kg, 2 min, Test Run D table, read-out: Plasma Concentrations, Mean ± SE): 11600 ± 2770 ng/mL
- concentration at 15 min ([2]; plasma, iv, 1 mg/kg, IV at 1 mg/kg, 15 min, Test Run D table, read-out: Plasma Concentrations, Mean ± SE): 7300 ± 2250 ng/mL
Compound: C#CC[C@H](NC(=O)C(CC(=O)N(C)CCN(C)C)Cc1ccccc1)C(=O)NC(CC1CCCCC1)[C@@H](O)C(O)CC(C)C (relative stereo) [Example 1, N1-[1R*-[[[1S,1R*-(cyclohexylmethyl)-2S*,3R*-dihydroxy-5-methylhexyl]amino]carbonyl]-3-butynyl]-N4-[2-(dimethylamino)ethyl]-N4-methyl-2S*-(phenylmethyl)butanediamide]
- Plasma Concentrations ([2]; IV at 1 mg/kg, Test Run C, 15 min, 1 mg/kg): 6756 ng/mL and 15283 ng/mL and 11628 ng/mL
